For series [1], the system named is H. pylori CI-HC-028. Description: Time-dependent killing of multidrug resistant clinical isolate. The series is classed as cell-based, Helicobacter pylori. The conditions noted are these: CI-HC-028, at MIC. As for the experimental part:
Control peptide and H. pylori alone were used as controls. The cultures were monitored for 24 h, and aliquots were taken at 1, 3, 6, 12, and 24 h for bacterial enumeration. The data are means ± SEM. […] Approximately, 1 × 10^5 cells were incubated for 1 h, and then incubated with the MIC of TP4, amoxicillin, metronidazole, or clarithromycin (AMOX, METZ, and CLRN, respectively). The cultures were monitored for 24 h, and aliquots taken at 1, 3, 6, 12, and 24 h to determine surviving c.f.u. The data are means ± SEM
Overnight cultures of H. pylori were scraped and adjusted to OD 0.05, and 1 ml/tube inocula were prepared with BHI broth. Solutions of TP4 or clinical antibiotics were prepared with concentrations corresponding to their respective MIC, and PBS was used as a control. The tubes were incubated without shaking at 37°C under microaerophilic conditions, and sample aliquots were taken at 0, 1, 3, 6, 12, and 24 hr. The samples were serially diluted, and appropriate dilutions were plated in triplicate onto blood agar plates for bacterial counts. The results were expressed as mean log (c.f.u. mL^−1) with standard error.

The test system of series [2] is metronidazole- and clarithromycin-resistant H. pylori strains. Description: Synergy of TP4 with antibiotics, in vitro dose-OD fall kinetics. The series is classed as cell-based, Helicobacter pylori. The conditions noted are these: TP4 plus antibiotic. As for the experimental part: (§1) Animals were sacrificed at each passage, and the MIC of TP4, amoxicillin, metronidazole, and clarithromycin were recorded for 10 serial passages. Passage points in the curves are means ± SEM. (MICs: standard MIC value; MICp: passage-induced MIC). (B) In vitro dose-OD fall kinetics were examined for TP4 alone and in combination with amoxicillin, metronidazole, or clarithromycin. […] The data shown are means ± SEM of two independent experiments
Combination therapy often enhances antibiotic efficacy and mitigates the frequency at which drug resistance emerges. To determine the suitability of TP4 for combination therapy, we examined in vitro dose-OD fall kinetics of TP4 in combination with AMOX, CLRN, or METZ antibiotics; these three antibiotics are traditionally used as the first line of defense against H. pylori.

The subject of series [3] is H. pylori. Description: Induction of drug resistance by sub-inhibitory passaging (in vitro / in vivo passage). It is filed as cell-based, Helicobacter pylori. The conditions noted are these: sub-inhibitory doses, 10 serial passages. As for the experimental part:
as §1
The drug resistance of bacteria to TP4 and clinical antibiotics was determined by in vitro culturing of H. pylori in sub-inhibitory concentrations of TP4 and antibiotics, followed by repeated in vivo passaging. H. pylori was administered to C3H/HeN mice and allowed to colonize the gut; subsequently pure colonies of H. pylori were isolated on EYE selective media. This step was repeated for 10 passages. During each passage, the MICs of TP4 and the conventional antibiotics were determined. All procedures, care, and handling of mice were approved by the laboratory animal ethics committee of National Taiwan Ocean University.

For series [4], the system named is H. pylori CI-HC-028. The series is classed as cell-based, Helicobacter pylori. The conditions noted are these: CI-HC-028, 24 h. As for the experimental part:
(§2) H. pylori strains, American type cell cultures (ATCC) 43504, 51653, and 700392, and a clinical isolate CI-HC-028 (provided by Dr. Ming-Shiung Wu, Department of Internal Medicine, Gastrointestinal Hepatobilary Division, National Taiwan University Hospital, Taiwan) were used to determine the antimicrobial efficacy of TP4. Strains were cryopreserved at −80°C in brain heart infusion broth supplemented with 20% FBS. Bacteria were cultured under microaerobic conditions, as previously described. Briefly, bacteria were spread on brain heart infusion (BHI) agar plates supplemented with 10% (v/v) sheep blood, and plates were incubated at 37°C for 24 hr under a microaerobic atmosphere (Anaeropack-Anaero, Mitsubishi, Japan).
(§3) Frozen cultures were streaked onto BHI agar with 10% sheep blood, and incubated for 24 hr under microaerophilic conditions. H. pylori cells undergoing exponential growth were suspended in sterile phosphate-buffered saline (PBS), and adjusted to 0.05 OD using BHI broth; the resulting inoculum was dispensed onto a microtitre plate. Peptide TP4 was prepared at various concentrations (0.04 to 50 μg mL^−1) using PBS. Antibiotic resistant clinical isolate CI-HC-028 and three reference strains were used for susceptibility testing. All plates were incubated under microaerophilic conditions at 37°C overnight. The MIC was defined as the lowest concentration of the drug at which there was no visible growth. For quality control and comparative analyses, we examined the susceptibility of all four H. pylori strains to the antibiotics amoxicillin, clarithromycin, and metronidazole (Sigma Chemical Co., St. Louis, MO).

Series [5] has as its system H. pylori 700392. It is filed as cell-based, Helicobacter pylori. The conditions noted are these: 700392, 24 h. As for the experimental part: as §2, §3
Series [6] has as its system H. pylori 43504. The series is classed as cell-based, Helicobacter pylori. The conditions noted are these: 43504, 24 h. How it is done:
as §2, §3

In series [7] the test system is H. pylori 43629. The series is classed as cell-based, Helicobacter pylori. The conditions noted are these: 43629, 24 h.
Series [8] relates to C3H/HeN mice. The experiment in a line: Dermal toxicity. It is filed as in vivo. The conditions noted are these: 48 hr post-exposure, after residue removal; 125 mg/kg TP4 or 20% SDS; n=12 per group. As for the experimental part:
(§4) Figure 11 TP4 toxicity safety evaluations in New Zealand albino rabbits and C3H/HeN mice (A) Eye irritation test: Ocular appearances of controls, and rabbits treated with TP4 or SDS for 7 days. […] (B) Dermal toxicity: appearances of the skin of mice treated with TP4 at 48 hr post-exposure.
(§5) Oral toxicity: Acute oral toxicity was assessed in C3H/HeN mice with 6 animals per group, by single oral administration of TP4 (125 mg/kg). After dose administration, the animals were kept under observation for a minimum of 48 hr. The mortality rate and clinical signs were recorded. Sub-acute oral toxicity was assessed by administering 600 μg dose/day for 14 days. During dose administration, the animals were observed every day for any signs of toxicity. After the treatment period, the animals were kept under observation for 14 days. The morbidity, mortality, and other clinical signs were recorded and assessed. Dermal Toxicity was assessed by topical application of TP4 at 10 times the effective dose to skin at the dorsal side of mice. After administration, the animals were kept under observation for a minimum of 48 h. Clinical signs were noted if the animals were in the morbid stage or presented with any abnormalities. Eye irritation test in New Zealand white rabbits: Healthy young adult rabbits were used in the experiment. Eyes were treated with TP4, PBS (vehicle control), or 0.1% SDS (positive control). A repeated dose of 1 mg/kg was administered every day for 7 days. During the treatment period, the eyes were examined on days 1, 3, 5, and 7, and allowed to recover until day 14. Clinical signs were recorded during the test period, and grades were assigned for ocular reactions observed during each examination. All procedures, care, and handling of rabbits were approved by the laboratory animal ethics committee of National Taiwan Ocean University.

Series [9] has as its system New Zealand white rabbits. The experiment in a line: Eye irritation test in rabbits (OECD 405). The series is classed as in vivo. The conditions noted are these: for Abnormality iris grade / Chemosis grade / Conjunctivae Redness grade / Corneal opacity grade: OECD 405 grading. How it is done: as §4, §5

Where a SMILES comes first, the peptide text is derived from it. A value given as a limit tells only on which side of the number the result lay.

A word on the MIC: it is the lowest concentration found to suppress growth. A higher MIC goes with weaker potency.

`CC[C@H]1OC(=O)[C@H](C)[C@@H](O[C@H]2C[C@@](C)(OC)[C@@H](O)[C@H](C)O2)[C@H](C)[C@@H](O[C@@H]2O[C@H](C)C[C@H](N(C)C)[C@H]2O)[C@](C)(OC)C[C@@H](C)C(=O)[C@H](C)[C@@H](O)[C@]1(C)O` [clarithromycin]: the “time taken to 90% reduction of c.f.u.” value in series [1] was over 24 h. Besides, the “reduction of the MIC of the antibiotic in combination with TP4” value in series [2] is listed as “one-half”. Further, the “drug resistance index MICp/MICs” value in series [3] was “gradually increased from passage 3 to the last passage”.
For the molecule `CC(C)C[C@H](NC(=O)[C@@H](NC(=O)[C@H](CO)NC(=O)[C@H](CC(=O)O)NC(=O)[C@H](Cc1c[nH]c2ccccc12)NC(=O)[C@H](CC(=O)O)NC(=O)[C@@H](N)Cc1ccccc1)C(C)C)C(=O)N[C@@H](CCCCN)C(=O)NCC(=O)N[C@H](C(=O)N[C@@H](CCC(=O)O)C(=O)NCC(=O)N[C@@H](Cc1ccccc1)C(=O)N[C@H](C(=O)N[C@@H](CCCNC(=N)N)C(=O)NCC(=O)N[C@@H](Cc1ccc(O)cc1)C(=O)N[C@@H](Cc1ccccc1)C(N)=O)C(C)C)C(C)C` [TP1] (H-FDWDSVLKGVEGFVRGYF-NH2), the minimum inhibitory concentration (MIC) in [4], in [5], in series [6] and in series [7] was over 12 µg/mL each time.
For `CC[C@H](C)[C@H](NC(=O)[C@H](CC(C)C)NC(=O)[C@H](CO)NC(=O)[C@H](Cc1c[nH]cn1)NC(=O)[C@@H](NC(=O)[C@H](Cc1c[nH]cn1)NC(=O)[C@H](CCCCN)NC(=O)CNC(=O)[C@@H](NC(=O)[C@H](CO)NC(=O)[C@H](Cc1ccccc1)NC(=O)[C@H](CC(C)C)NC(=O)CNC(=O)CNC(=O)[C@@H](NC(=O)[C@@H](NC(=O)[C@H](Cc1c[nH]cn1)NC(=O)[C@H](Cc1c[nH]cn1)NC(=O)[C@@H](NC(=O)[C@@H](N)Cc1ccccc1)[C@@H](C)CC)[C@@H](C)CC)[C@@H](C)CC)C(C)C)[C@@H](C)CC)C(=O)N[C@@H](Cc1c[nH]cn1)C(=O)NCC(=O)N[C@@H](Cc1c[nH]cn1)C(N)=O` [TP3] (H-FIHHIIGGLFSVGKHIHSLIHGH-NH2), the MIC in [4], in series [5], in [6] and in [7] was 8 to 12 µg/mL each time.
As to `Cc1ncc([N+](=O)[O-])n1CCO` [metronidazole], the “course of cell count in time kill” value in [1] (24 h) was “initial decrease in cell count, but gradually lost activity”. Besides, in [2], the “reduction of the MIC of the antibiotic in combination with TP4” value is “one-half”. The “drug resistance index MICp/MICs” value in series [3] is “gradually increased from passage 3 to the last passage”.
For `CCCCCCCCCCCCOS(=O)(=O)[O-].[Na+]` [SDS, reference compound], the “skin appearance, lesions” value in [8] was “No obvious lesions”. Besides, the Abnormality iris grade in [9] (Day 1) is 0; in series [9] (Day 3), 0; in series [9] (Day 5), 0; in series [9] (Day 7), 0; in series [9] (Recovery, Day 14), 0. Besides, the Chemosis grade in [9] (Day 1) turned out to be 1.5; in series [9] (Day 3) it was 1.5; in series [9] (Day 5) it was 2; in series [9] (Day 7) it was 2; in series [9] (Recovery, Day 14), 1.5. In addition, the “Conjunctivae Redness grade” value in [9] (Day 1) is listed as 1; in series [9] (Day 3), 1; in series [9] (Day 5) it was 1; in [9] (Day 7), 1; in series [9] (Recovery, Day 14), 0.5. In addition, the Corneal opacity grade in series [9] (Day 1, rabbit eye, daily for 7 days (TP4 1 mg/kg; SDS 0.1%)) amounted to 1; in series [9] (Day 3), 1; in [9] (Day 5), 1; in series [9] (Day 7) it was 1; in series [9] (Recovery, Day 14), 0.5. Further, in series [9] (rabbits treated for 7 days, observed daily), the ocular appearance entry was “severe lacrimation, swelling of the eyelids, and elevated blood vessels in conjunctivae”.
Regarding `CC[C@H](C)[C@H](NC(=O)[C@H](CC(C)C)NC(=O)[C@H](CCC(=O)O)NC(=O)[C@H](CCC(N)=O)NC(=O)[C@H](CC(C)C)NC(=O)[C@@H](NC(=O)[C@H](CCCCN)NC(=O)[C@H](CCC(N)=O)NC(=O)[C@@H](NC(=O)[C@@H](NC(=O)[C@H](CCC(=O)O)NC(=O)CNC(=O)[C@H](CO)NC(=O)[C@@H](NC(=O)[C@H](CCC(N)=O)NC(=O)[C@H](CCCCN)NC(=O)CNC(=O)[C@H](CCC(N)=O)NC(=O)[C@H](CC(C)C)NC(=O)[C@@H](N)CCC(N)=O)C(C)C)C(C)C)C(C)C)C(C)C)C(=O)N[C@@H](CCC(N)=O)C(=O)N[C@@H](CO)C(=O)N[C@H](C(=O)N[C@@H](C)C(=O)N[C@@H](CCCCN)C(=O)N1CCC[C@H]1C(N)=O)C(C)C` [TP5] (H-QLQGKQVSGEVVQKVLQELIQSVAKP-NH2), the minimum inhibitory concentration (MIC) in series [4], in [5], in series [6] and in [7] was over 12 µg/mL in each case.

(Values after publication PMC4536990, “Efficacy of the antimicrobial peptide TP4 against Helicobacter pylori infection: in vitro membrane perturbation via micellization and in vivo suppression of host immune responses in a mouse model” (Oncotarget, 2015).)
